A word on the EC50: it is the midpoint of the concentration-response curve.

The text below walks through data of US11866450B2, “Modulators of Cystic Fibrosis Transmembrane Conductance regulator, pharmaceutical compositions, methods of treatment, and process for making the modulators” (priority 2018, dated 2024).

The target of the assay is CFTR-mediated chloride transport (Homo sapiens, UniProt P13569). The assay is classed as cell-based. To be noted: enteroid cells incubated with test compound 18-24 hours, acute 10 μM forskolin and 300 nM Compound III; for Max. Activity: % of chloride transport with 3 μM Compound A, 3 μM Compound II and 300 nM acute Compound III triple combination control. The method, boiled down:
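Membrane-potential fluorescence AUC over 15 min quantified CFTR chloride transport after acute forskolin (10 μM), IBMX (100 μM) and Compound III (300 nM) in chloride-free buffer. Human enteroid cells were pretreated with compound for 18–24 h; % Activity is relative to 3 μM Compound A + 3 μM Compound II + 300 nM Compound III.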

CFTR-mediated chloride transport, sequence (P13569 whole entry, looked up): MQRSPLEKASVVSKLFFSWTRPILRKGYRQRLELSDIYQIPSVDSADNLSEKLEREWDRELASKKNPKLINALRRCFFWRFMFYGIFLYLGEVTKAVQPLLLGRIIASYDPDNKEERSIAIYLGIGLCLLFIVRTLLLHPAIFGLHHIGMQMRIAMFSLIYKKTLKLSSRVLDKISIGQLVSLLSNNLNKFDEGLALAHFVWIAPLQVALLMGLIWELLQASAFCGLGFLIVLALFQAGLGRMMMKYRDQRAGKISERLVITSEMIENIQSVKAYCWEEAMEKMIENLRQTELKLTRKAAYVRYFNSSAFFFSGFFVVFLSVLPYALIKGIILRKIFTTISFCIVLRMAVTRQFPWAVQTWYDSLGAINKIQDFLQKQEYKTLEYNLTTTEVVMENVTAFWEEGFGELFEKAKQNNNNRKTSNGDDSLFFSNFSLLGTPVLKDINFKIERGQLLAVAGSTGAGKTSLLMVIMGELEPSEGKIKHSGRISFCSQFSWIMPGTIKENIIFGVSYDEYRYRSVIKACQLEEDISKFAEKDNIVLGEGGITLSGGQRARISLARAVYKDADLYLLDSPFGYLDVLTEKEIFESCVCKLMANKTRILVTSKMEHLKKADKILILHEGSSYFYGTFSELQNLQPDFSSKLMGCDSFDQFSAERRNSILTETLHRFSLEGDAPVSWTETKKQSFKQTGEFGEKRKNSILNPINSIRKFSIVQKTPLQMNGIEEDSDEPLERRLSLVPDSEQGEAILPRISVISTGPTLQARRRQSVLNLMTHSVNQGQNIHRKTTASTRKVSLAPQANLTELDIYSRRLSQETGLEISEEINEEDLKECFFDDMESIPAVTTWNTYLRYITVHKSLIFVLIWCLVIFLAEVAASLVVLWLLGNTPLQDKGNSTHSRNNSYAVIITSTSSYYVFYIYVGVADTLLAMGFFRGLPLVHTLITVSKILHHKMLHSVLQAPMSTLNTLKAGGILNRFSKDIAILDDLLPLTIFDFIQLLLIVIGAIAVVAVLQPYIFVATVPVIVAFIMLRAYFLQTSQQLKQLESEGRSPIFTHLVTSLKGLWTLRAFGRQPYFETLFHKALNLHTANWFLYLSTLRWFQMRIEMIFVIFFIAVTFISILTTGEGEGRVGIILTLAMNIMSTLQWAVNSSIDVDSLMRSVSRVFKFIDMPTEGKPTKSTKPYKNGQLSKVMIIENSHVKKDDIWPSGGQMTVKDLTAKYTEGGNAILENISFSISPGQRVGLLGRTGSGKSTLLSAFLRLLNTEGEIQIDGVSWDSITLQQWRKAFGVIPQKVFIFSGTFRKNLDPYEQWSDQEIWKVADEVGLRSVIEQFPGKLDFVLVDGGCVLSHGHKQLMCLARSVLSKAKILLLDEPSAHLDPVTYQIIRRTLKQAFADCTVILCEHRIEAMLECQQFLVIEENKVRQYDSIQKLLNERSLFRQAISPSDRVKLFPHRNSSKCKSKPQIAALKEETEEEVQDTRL

As for `CC1(C)C[C@H]2CCCn3ccc(n3)S(=O)(=O)NC(=O)c3ccc(-n4ccc(OCCC5C(C)(C)C5(C)C)n4)nc3N1C2` (single isomer, unassigned) [Compound 206, 20,20-dimethyl-4-{3-[2-(2,2,3,3-tetramethylcyclopropyl)ethoxy]-1H-pyrazol-1-yl}-10λ^6-thia-1,3,9,14,22-pentaazatetracyclo[16.2.1.111,14.02,7]docosa-2(7),3,5,11(22),12-pentaene-8,10,10-trione], the EC50 is under 1000 nM and the “Max. Activity” value is “+ (+ is <30%)”.

`CC1(C)C[C@H]2CCCn3ccc(n3)S(=O)(=O)NC(=O)c3ccc(-n4ccc(OCCC5C(C)(C)C5(C)C)n4)nc3N1C2` (single isomer, unassigned) [Compound 207, 20,20-dimethyl-4-{3-[2-(2,2,3,3-tetramethylcyclopropyl)ethoxy]-1H-pyrazol-1-yl}-10λ^6-thia-1,3,9,14,22-pentaazatetracyclo[16.2.1.111,14.02,7]docosa-2(7),3,5,11(22),12-pentaene-8,10,10-trione]: the EC50 is under 1000 nM and the “Max. Activity” value was “+++ (+++ is >60%)”.

As for `C[C@@H]1CC[C@H]2CN(c3nc(N4CCN(CCC(C)(C)C)C4=O)ccc3C(=O)NS(=O)(=O)c3cccc(n3)N1)C(C)(C)C2` (single isomer, unassigned) [Compound 215, 8-[3-(3,3-dimethylbutyl)-2-oxoimidazolidin-1-yl]-12,12,17-trimethyl-2λ^6-thia-3,9,11,18,23-pentaazatetracyclo[17.3.1.111,14.05,10]tetracosa-1(22),5,7,9,19(23),20-hexaene-2,2,4-trione], the EC50 is over 3000 nM and the “Max. Activity” value is reported as “+ (+ is <30%)”.

`C[C@@H]1CC[C@H]2CN(c3nc(N4CCN(CCC(C)(C)C)C4=O)ccc3C(=O)NS(=O)(=O)c3cccc(n3)N1)C(C)(C)C2` (single isomer, unassigned) [Compound 216, 8-[3-(3,3-dimethylbutyl)-2-oxoimidazolidin-1-yl]-12,12,17-trimethyl-2λ^6-thia-3,9,11,18,23-pentaazatetracyclo[17.3.1.111,14.05,10]tetracosa-1(22),5,7,9,19(23),20-hexaene-2,2,4-trione]: the EC50 was under 1000 nM and the “Max. Activity” value is “+++ (+++ is >60%)”.

Consider `C[C@@H]1CC[C@H]2CN(c3nc(N4CCN(CCC(C)(C)C)C4=O)ccc3C(=O)NS(=O)(=O)c3cccc(n3)N1)C(C)(C)C2` (single isomer, unassigned) [Compound 218, 8-[3-(3,3-dimethylbutyl)-2-oxoimidazolidin-1-yl]-12,12,17-trimethyl-2λ^6-thia-3,9,11,18,23-pentaazatetracyclo[17.3.1.111,14.05,10]tetracosa-1(22),5,7,9,19(23),20-hexaene-2,2,4-trione], for which the EC50 is over 3000 nM and the “Max. Activity” value is “+ (+ is <30%)”.

With `C[C@@H]1CC[C@H]2CN(c3nc(N4CCN(CCC(C)(C)C)C4=O)ccc3C(=O)NS(=O)(=O)c3cccc(n3)N1)C(C)(C)C2` (single isomer, unassigned) [Compound 219, 8-[3-(3,3-dimethylbutyl)-2-oxoimidazolidin-1-yl]-12,12,17-trimethyl-2λ^6-thia-3,9,11,18,23-pentaazatetracyclo[17.3.1.111,14.05,10]tetracosa-1(22),5,7,9,19(23),20-hexaene-2,2,4-trione], the EC50 is under 1000 nM and the “Max. Activity” value is listed as “++ (++ is 30-60%)”.

`CC1(C)C[C@H]2CCNc3cccc(n3)S(=O)(=O)NC(=O)c3ccc(-n4ccc(OCCCC5(C(F)(F)F)CC5)n4)nc3N1C2` (single isomer, unassigned) [Compound 234, 7,7-dimethyl-11-(3-{3-[1-(trifluoromethyl)cyclopropyl]propoxy}-1H-pyrazol-1-yl)-17λ^6-thia-2,8,10,16,22-pentaazatetracyclo[16.3.1.15,8.09,14]tricosa-1(22),9,11,13,18,20-hexaene-15,17,17-trione]: the EC50 was under 1000 nM and the “Max. Activity” value was “++ (++ is 30-60%)”.

For `CC1(C)C[C@H]2CCNc3cccc(n3)S(=O)(=O)NC(=O)c3ccc(-n4ccc(OCCCC5(C(F)(F)F)CC5)n4)nc3N1C2` (single isomer, unassigned) [Compound 235, 7,7-dimethyl-11-(3-{3-[1-(trifluoromethyl)cyclopropyl]propoxy}-1H-pyrazol-1-yl)-17λ^6-thia-2,8,10,16,22-pentaazatetracyclo[16.3.1.15,8.09,14]tricosa-1(22),9,11,13,18,20-hexaene-15,17,17-trione], the EC50 is under 1000 nM and the “Max. Activity” value is on record as “+++ (+++ is >60%)”.

Regarding `CC1(C)C[C@@H]2CCCNc3cccc(n3)S(=O)(=O)NC(=O)c3ccc(N4CCN(C[C@H]5CC[C@@H](C(F)(F)F)CC5)C4=O)nc3N1C2` (single isomer, unassigned) [Compound 239], the EC50 was under 1000 nM and the “Max. Activity” value is listed as “+ (+ is <30%)”.

Consider `CC1(C)C[C@@H]2CCCNc3cccc(n3)S(=O)(=O)NC(=O)c3ccc(N4CC[C@H](OCCC56CC7CC(CC(C7)C5)C6)C4=O)nc3N1C2` (single isomer, unassigned) [Compound 240], for which the EC50 was under 1000 nM and the “Max. Activity” value is recorded as “++ (++ is 30-60%)”.

As for `CC1(C)C[C@@H]2CCCNc3cccc(n3)S(=O)(=O)NC(=O)c3ccc(N4CC[C@H](OCCC56CC7CC(CC(C7)C5)C6)C4=O)nc3N1C2` (single isomer, unassigned) [Compound 241], the EC50 is under 1000 nM and the “Max. Activity” value is “++ (++ is 30-60%)”.

Regarding `CC1(C)C[C@@H]2CCCNc3cccc(n3)S(=O)(=O)NC(=O)c3ccc(N4CC[C@H](OCCCC5(C(F)(F)F)CC5)C4=O)nc3N1C2` (single isomer, unassigned) [Compound 242], the EC50 is under 1000 nM and the “Max. Activity” value is on record as “++ (++ is 30-60%)”.

Take `CC1(C)C[C@@H]2CCCNc3cccc(n3)S(=O)(=O)NC(=O)c3ccc(N4CC[C@H](OCCCC5(C(F)(F)F)CC5)C4=O)nc3N1C2` (single isomer, unassigned) [Compound 243]: the EC50 is under 1000 nM and the “Max. Activity” value is “+++ (+++ is >60%)”.

For the compound `CC1(C)C[C@@H]2CCCNc3cccc(n3)S(=O)(=O)NC(=O)c3ccc(N4CC[C@H](OCC56CC7CC(CC(C7)C5)C6)C4=O)nc3N1C2` (single isomer, unassigned) [Compound 244], the EC50 was under 1000 nM and the “Max. Activity” value is “++ (++ is 30-60%)”.

With `CC1(C)C[C@@H]2CCCNc3cccc(n3)S(=O)(=O)NC(=O)c3ccc(N4CC[C@H](OCC56CC7CC(CC(C7)C5)C6)C4=O)nc3N1C2` (single isomer, unassigned) [Compound 245], the EC50 is under 1000 nM and the “Max. Activity” value is reported as “+++ (+++ is >60%)”.

For `CC(C)(C)CCCO[C@H]1CCN(c2ccc3c(n2)N2C[C@@H](CCCNc4cccc(n4)S(=O)(=O)NC3=O)CC2(C)C)C1=O` (single isomer, unassigned) [Compound 246], the EC50 was under 1000 nM and the “Max. Activity” value is recorded as “++ (++ is 30-60%)”.

Take `CC(C)(C)CCCO[C@H]1CCN(c2ccc3c(n2)N2C[C@@H](CCCNc4cccc(n4)S(=O)(=O)NC3=O)CC2(C)C)C1=O` (single isomer, unassigned) [Compound 247]: the EC50 was under 1000 nM and the “Max. Activity” value is “+++ (+++ is >60%)”.

`CC(C)C(COc1ccn(-c2ccc3c(n2)N2C[C@@H](CC2(C)C)OCCNc2cccc(n2)S(=O)(=O)NC3=O)n1)C(C)C` (single isomer, unassigned) [Compound 248, 12,12-dimethyl-8-{3-[3-methyl-2-(propan-2-yl)butoxy]-1H-pyrazol-1-yl}-15-oxa-2λ^6-thia-3,9,11,18,23-pentaazatetracyclo[17.3.1.111,14.05,10]tetracosa-1(23),5(10),6,8,19,21-hexaene-2,2,4-trione]: the EC50 is under 1000 nM and the “Max. Activity” value was “++ (++ is 30-60%)”.

For the compound `CC(C)C(COc1ccn(-c2ccc3c(n2)N2C[C@@H](CC2(C)C)OCCNc2cccc(n2)S(=O)(=O)NC3=O)n1)C(C)C` (single isomer, unassigned) [Compound 249, 12,12-dimethyl-8-{3-[3-methyl-2-(propan-2-yl)butoxy]-1H-pyrazol-1-yl}-15-oxa-2λ^6-thia-3,9,11,18,23-pentaazatetracyclo[17.3.1.111,14.05,10]tetracosa-1(23),5(10),6,8,19,21-hexaene-2,2,4-trione], the EC50 was under 1000 nM and the “Max. Activity” value was “+++ (+++ is >60%)”.

As to `CC1(C)C[C@H]2CCNc3cccc(n3)S(=O)(=O)NC(=O)c3ccc(-n4ccc(OCCC(C5CC5)C5CC5)n4)nc3N1C2` (single isomer, unassigned) [Compound 250, 11-[3-(3,3-Dicyclopropylpropoxy)-1H-pyrazol-1-yl]-7,7-dimethyl-17λ^6-thia-2,8,10,16,22-pentaazatetracyclo[16.3.1.15,8.09,14]tricosa-1(22),9,11,13,18,20-hexaene-15,17,17-trione], the EC50 was under 1000 nM and the “Max. Activity” value is “++ (++ is 30-60%)”.

Turning to `CC1(C)C[C@H]2CCNc3cccc(n3)S(=O)(=O)NC(=O)c3ccc(-n4ccc(OCCC(C5CC5)C5CC5)n4)nc3N1C2` (single isomer, unassigned) [Compound 251, 11-[3-(3,3-dicyclopropylpropoxy)-1H-pyrazol-1-yl]-7,7-dimethyl-17λ^6-thia-2,8,10,16,22-pentaazatetracyclo[16.3.1.15,8.09,14]tricosa-1(22),9,11,13,18,20-hexaene-15,17,17-trione], the concentration for a half-maximal effect (EC50) was under 1000 nM and the “Max. Activity” value is “++ (++ is 30-60%)”.
